# Results taken from ChEMBL document CHEMBL1201862, “PubChem BioAssay data set” (2004).
#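 In this assay, cells in 96-well plates receive the compound at five concentrations for 48 hours. Endpoints are linearly interpolated between the surrounding concentrations. GI50 marks 50% less growth.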 Active and inactive are the calls of the source. Rule as the data show it: active = GI50 up to about 1.1 µM and inactive = higher. Where a SMILES comes first, the peptide text is derived from it. Bridges are numbered along the chain shown (N, C = ends). [ ]: non-standard residue; d: D form. The star is where a group is joined. ξ: configuration not given here. X28 = O=C(/C=C/C=C/C=C/C=C/C=C/C(=O)*)NC1=C(O)CCC1=O; NMeA = CN[C@@H](C)C(=O)O; ξF = NC(Cc1ccccc1)C(=O)O; ξA = CC(N)C(=O)O
# Experiments:
# Assay in all cases: NCI tumour cell line growth inhibition, 48 h
# SN12C = tested on: SN12C
# T47D = tested on: T47D
# NCI-H460 = tested on: NCI-H460
# M14 = tested on: M14
# ACHN = tested on: ACHN
# UO-31 = tested on: UO-31
# 786-0 = tested on: 786-0
# NCI-H226 = tested on: NCI-H226
# UACC-62 = tested on: UACC-62
# OVCAR-4 = tested on: OVCAR-4
# OVCAR-3 = tested on: OVCAR-3
# TK-10 = tested on: TK-10
# UACC-257 = tested on: UACC-257
# NCI/ADR-RES = tested on: NCI/ADR-RES
# CCRF-CEM = tested on: CCRF-CEM
# HOP-62 = tested on: HOP-62
# KM12 = tested on: KM12
# RPMI-8226 = tested on: RPMI-8226
# Hs-578T = tested on: Hs-578T
# IGROV-1 = tested on: IGROV-1
SMILES,GI50 (SN12C),GI50 (T47D),GI50 (NCI-H460),GI50 (M14),GI50 (ACHN),GI50 (UO-31),GI50 (786-0),GI50 (NCI-H226),GI50 (UACC-62),GI50 (OVCAR-4),GI50 (OVCAR-3),GI50 (TK-10),GI50 (UACC-257),GI50 (NCI/ADR-RES),GI50 (CCRF-CEM),GI50 (HOP-62),GI50 (KM12),GI50 (RPMI-8226),GI50 (Hs-578T),GI50 (IGROV-1)
COc1ccccc1/N=C1\SCCN1C(=S)Nc1ccc(S(=O)(=O)/N=C/N(C)C)cc1,50.9 µM (inactive),25.8 µM (inactive),> 100 µM (inactive),51.5 µM (inactive),32.4 µM (inactive),38.5 µM (inactive),44.2 µM (inactive),> 100 µM (inactive),25.7 µM (inactive),43.2 µM (inactive),44 µM (inactive),36 µM (inactive),36.1 µM (inactive),45 µM (inactive),38.3 µM (inactive),> 100 µM (inactive),> 100 µM (inactive),21.6 µM (inactive),,
C=C(C)C1CC(=O)C(C)=C(O)C1 (configuration not stated),> 100 µM (inactive),> 100 µM (inactive),> 100 µM (inactive),> 100 µM (inactive),> 100 µM (inactive),> 100 µM (inactive),> 100 µM (inactive),> 100 µM (inactive),> 100 µM (inactive),> 100 µM (inactive),,> 100 µM (inactive),> 100 µM (inactive),> 100 µM (inactive),> 100 µM (inactive),> 100 µM (inactive),> 100 µM (inactive),,> 100 µM (inactive),> 100 µM (inactive)
COP(=O)(OC)/C(=C/c1cn(C(C)=O)c2ccccc12)NC(C)=O,31.6 µM (inactive),38.5 µM (inactive),52.5 µM (inactive),41.8 µM (inactive),53 µM (inactive),,,,,33.2 µM (inactive),21.3 µM (inactive),58.2 µM (inactive),> 100 µM (inactive),28.8 µM (inactive),16.7 µM (inactive),41.3 µM (inactive),,12.6 µM (inactive),35.4 µM (inactive),54.8 µM (inactive)
O=C(Sc1c(-c2ccccc2)c(=O)n(-c2ccccc2)c(=S)n1-c1ccccc1)c1ccc(Cl)cc1,> 100 µM (inactive),71 µM (inactive),> 100 µM (inactive),> 100 µM (inactive),> 100 µM (inactive),,> 100 µM (inactive),> 100 µM (inactive),> 100 µM (inactive),> 100 µM (inactive),> 100 µM (inactive),> 100 µM (inactive),> 100 µM (inactive),> 100 µM (inactive),32.5 µM (inactive),> 100 µM (inactive),> 100 µM (inactive),,> 100 µM (inactive),63 µM (inactive)
NC1=C(N2CCOCC2)C(=O)NC2=N/C(=C\c3ccccc3)C(=O)N21,> 100 µM (inactive),81.3 µM (inactive),> 100 µM (inactive),> 100 µM (inactive),> 100 µM (inactive),> 100 µM (inactive),> 100 µM (inactive),97.9 µM (inactive),,> 100 µM (inactive),,> 100 µM (inactive),> 100 µM (inactive),> 100 µM (inactive),79.6 µM (inactive),,> 100 µM (inactive),47.4 µM (inactive),> 100 µM (inactive),> 100 µM (inactive)
CCCNc1[nH]c(C(=O)c2ccccc2)c(N)c1C(=S)Nc1ccccc1,> 100 µM (inactive),> 100 µM (inactive),> 100 µM (inactive),> 100 µM (inactive),> 100 µM (inactive),> 100 µM (inactive),> 100 µM (inactive),> 100 µM (inactive),> 100 µM (inactive),> 100 µM (inactive),> 100 µM (inactive),> 100 µM (inactive),> 100 µM (inactive),> 100 µM (inactive),> 100 µM (inactive),> 100 µM (inactive),> 100 µM (inactive),,> 100 µM (inactive),> 100 µM (inactive)
COC1=C(OC)C(=O)C(Cc2c(Cl)nc3n2CCS3)=C(C)C1=O,16.3 µM (inactive),4.13 µM (inactive),15 µM (inactive),13.1 µM (inactive),14.8 µM (inactive),13.7 µM (inactive),18.2 µM (inactive),,12.1 µM (inactive),7.73 µM (inactive),16.7 µM (inactive),15.6 µM (inactive),9.84 µM (inactive),12.8 µM (inactive),2.81 µM (inactive),15.6 µM (inactive),14 µM (inactive),6.53 µM (inactive),19.8 µM (inactive),16.9 µM (inactive)
COc1cc(Br)c(CC2C3=C(CCN2C(=O)C2CCC2)CC(=O)CC3)cc1O (configuration not stated),51.3 µM (inactive),26.2 µM (inactive),45.3 µM (inactive),33.4 µM (inactive),27.5 µM (inactive),55.6 µM (inactive),26.5 µM (inactive),41.9 µM (inactive),15.6 µM (inactive),,23.6 µM (inactive),30.4 µM (inactive),27.9 µM (inactive),27.5 µM (inactive),25.5 µM (inactive),44.2 µM (inactive),27.2 µM (inactive),32.7 µM (inactive),26.1 µM (inactive),36.3 µM (inactive)
Cc1ccc(S(N)(C(=O)Nc2cccc3ccccc23)[N+](=O)[O-])cc1 (configuration not stated),> 100 µM (inactive),46.2 µM (inactive),> 100 µM (inactive),> 100 µM (inactive),,35.7 µM (inactive),,> 100 µM (inactive),> 100 µM (inactive),> 100 µM (inactive),61.8 µM (inactive),72.4 µM (inactive),> 100 µM (inactive),> 100 µM (inactive),42.3 µM (inactive),> 100 µM (inactive),> 100 µM (inactive),48.6 µM (inactive),> 100 µM (inactive),> 100 µM (inactive)
CC1NC(=O)[C@H](C)N(C)C(=O)[C@@H]2CCCN2C(=O)[C@@H](NC(=O)C(Cc2ccccc2)NC(=O)/C=C/C=C/C=C/C=C/C=C/C(=O)NC2=C(O)CCC2=O)COC(=O)[C@@H]2CCCN2C1=O (some centres not stated) (X28-[ξF]SP[NMeA][ξA]P; ester 2-C),> 100 µM (inactive),> 100 µM (inactive),> 100 µM (inactive),> 100 µM (inactive),> 100 µM (inactive),29.2 µM (inactive),> 100 µM (inactive),,> 100 µM (inactive),> 100 µM (inactive),> 100 µM (inactive),30.3 µM (inactive),> 100 µM (inactive),> 100 µM (inactive),> 100 µM (inactive),48.1 µM (inactive),58.9 µM (inactive),> 100 µM (inactive),59.2 µM (inactive),> 100 µM (inactive)
Clc1ccc(-c2c3nc(c(-c4ccc(Cl)cc4)c4ccc([nH]4)c(-c4ccc(Cl)cc4)c4nc(c(-c5ccc(Cl)cc5)c5ccc2[nH]5)C=C4)C=C3)cc1,> 100 µM (inactive),> 100 µM (inactive),> 100 µM (inactive),> 100 µM (inactive),> 100 µM (inactive),> 100 µM (inactive),> 100 µM (inactive),,> 100 µM (inactive),> 100 µM (inactive),> 100 µM (inactive),> 100 µM (inactive),> 100 µM (inactive),> 100 µM (inactive),> 100 µM (inactive),> 100 µM (inactive),> 100 µM (inactive),> 100 µM (inactive),40.1 µM (inactive),> 100 µM (inactive)
O=C1C(Cl)=C(N2C(=O)CCC2=O)C(=O)c2ccccc21,17.9 µM (inactive),32.4 µM (inactive),53.6 µM (inactive),45.7 µM (inactive),15.7 µM (inactive),15 µM (inactive),18.7 µM (inactive),> 100 µM (inactive),34 µM (inactive),,17.9 µM (inactive),39.8 µM (inactive),25.2 µM (inactive),89.3 µM (inactive),2.62 µM (inactive),> 100 µM (inactive),41.8 µM (inactive),,> 100 µM (inactive),44.4 µM (inactive)
Cc1ccc(C)c(COCCOCn2ccc(N)nc2=O)c1,> 100 µM (inactive),> 100 µM (inactive),> 100 µM (inactive),> 100 µM (inactive),> 100 µM (inactive),> 100 µM (inactive),> 100 µM (inactive),> 100 µM (inactive),> 100 µM (inactive),,> 100 µM (inactive),> 100 µM (inactive),> 100 µM (inactive),> 100 µM (inactive),0.785 µM (active),> 100 µM (inactive),> 100 µM (inactive),,> 100 µM (inactive),> 100 µM (inactive)
C[C@@H](NC(=O)OC1C=CC2(CC1)C(=O)N(C)c1ccccc12)c1cccc2ccccc12 (some centres not stated),> 25 µM (inactive),7.26 µM (inactive),18.2 µM (inactive),14.4 µM (inactive),> 25 µM (inactive),> 25 µM (inactive),> 25 µM (inactive),21.8 µM (inactive),> 25 µM (inactive),16.3 µM (inactive),> 25 µM (inactive),> 25 µM (inactive),12.2 µM (inactive),11.7 µM (inactive),14.7 µM (inactive),> 25 µM (inactive),11.6 µM (inactive),8.79 µM (inactive),,4.86 µM (inactive)
CC(C1CCCC1=O)C1CCCC1=O (configuration not stated),> 100 µM (inactive),> 100 µM (inactive),> 100 µM (inactive),> 100 µM (inactive),> 100 µM (inactive),> 100 µM (inactive),> 100 µM (inactive),> 100 µM (inactive),> 100 µM (inactive),> 100 µM (inactive),,> 100 µM (inactive),> 100 µM (inactive),> 100 µM (inactive),> 100 µM (inactive),> 100 µM (inactive),> 100 µM (inactive),,92 µM (inactive),> 100 µM (inactive)
